What all share (test): HotSpot [3H]SAM filter-binding methyltransferase assay
What all share (type): biochemical

In one test the target is T1, NSD1 (Homo sapiens, UniProt Q96L73).
T1 construct: residues 1538-2696, N-terminal His tag, insect cell/baculovirus
T1 sequence (Q96L73 1538-2696): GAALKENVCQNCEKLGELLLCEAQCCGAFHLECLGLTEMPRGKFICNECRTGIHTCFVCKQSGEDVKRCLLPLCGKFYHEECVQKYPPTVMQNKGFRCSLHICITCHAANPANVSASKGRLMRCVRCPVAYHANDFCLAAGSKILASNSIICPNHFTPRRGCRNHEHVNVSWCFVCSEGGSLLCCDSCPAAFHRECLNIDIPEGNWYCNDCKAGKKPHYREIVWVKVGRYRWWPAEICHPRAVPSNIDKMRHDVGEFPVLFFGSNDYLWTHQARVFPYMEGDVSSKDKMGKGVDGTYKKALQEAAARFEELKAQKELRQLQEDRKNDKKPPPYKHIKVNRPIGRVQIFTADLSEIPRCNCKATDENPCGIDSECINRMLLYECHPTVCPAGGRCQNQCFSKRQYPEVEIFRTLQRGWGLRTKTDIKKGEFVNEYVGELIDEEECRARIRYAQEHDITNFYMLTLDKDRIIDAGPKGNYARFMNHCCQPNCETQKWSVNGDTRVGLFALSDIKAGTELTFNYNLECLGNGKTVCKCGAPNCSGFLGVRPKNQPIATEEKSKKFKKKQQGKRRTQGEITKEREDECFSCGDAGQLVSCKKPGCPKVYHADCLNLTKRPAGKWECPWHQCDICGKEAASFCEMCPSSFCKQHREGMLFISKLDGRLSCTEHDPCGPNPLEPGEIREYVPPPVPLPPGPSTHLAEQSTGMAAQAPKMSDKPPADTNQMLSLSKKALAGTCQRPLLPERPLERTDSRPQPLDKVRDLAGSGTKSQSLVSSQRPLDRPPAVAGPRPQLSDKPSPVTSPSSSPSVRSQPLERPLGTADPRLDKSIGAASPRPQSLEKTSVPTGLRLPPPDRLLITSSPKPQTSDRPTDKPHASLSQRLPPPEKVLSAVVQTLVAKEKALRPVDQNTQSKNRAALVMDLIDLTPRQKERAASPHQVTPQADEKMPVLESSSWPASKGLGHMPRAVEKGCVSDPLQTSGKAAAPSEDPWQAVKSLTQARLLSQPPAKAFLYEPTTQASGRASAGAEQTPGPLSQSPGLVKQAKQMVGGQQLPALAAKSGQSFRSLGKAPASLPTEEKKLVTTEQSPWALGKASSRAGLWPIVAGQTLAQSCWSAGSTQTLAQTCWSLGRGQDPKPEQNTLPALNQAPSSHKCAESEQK
Conditions: nucleosomes, […] SAM, pH […] MgCl2, […] DTT, […] °C, single experiment.

A further test has as its target T2, NSD2 (Homo sapiens, UniProt O96028).
T2 construct: full length (residues 2-1365), N-terminal His tag, insect cell/baculovirus
T2 sequence (O96028 2-1365): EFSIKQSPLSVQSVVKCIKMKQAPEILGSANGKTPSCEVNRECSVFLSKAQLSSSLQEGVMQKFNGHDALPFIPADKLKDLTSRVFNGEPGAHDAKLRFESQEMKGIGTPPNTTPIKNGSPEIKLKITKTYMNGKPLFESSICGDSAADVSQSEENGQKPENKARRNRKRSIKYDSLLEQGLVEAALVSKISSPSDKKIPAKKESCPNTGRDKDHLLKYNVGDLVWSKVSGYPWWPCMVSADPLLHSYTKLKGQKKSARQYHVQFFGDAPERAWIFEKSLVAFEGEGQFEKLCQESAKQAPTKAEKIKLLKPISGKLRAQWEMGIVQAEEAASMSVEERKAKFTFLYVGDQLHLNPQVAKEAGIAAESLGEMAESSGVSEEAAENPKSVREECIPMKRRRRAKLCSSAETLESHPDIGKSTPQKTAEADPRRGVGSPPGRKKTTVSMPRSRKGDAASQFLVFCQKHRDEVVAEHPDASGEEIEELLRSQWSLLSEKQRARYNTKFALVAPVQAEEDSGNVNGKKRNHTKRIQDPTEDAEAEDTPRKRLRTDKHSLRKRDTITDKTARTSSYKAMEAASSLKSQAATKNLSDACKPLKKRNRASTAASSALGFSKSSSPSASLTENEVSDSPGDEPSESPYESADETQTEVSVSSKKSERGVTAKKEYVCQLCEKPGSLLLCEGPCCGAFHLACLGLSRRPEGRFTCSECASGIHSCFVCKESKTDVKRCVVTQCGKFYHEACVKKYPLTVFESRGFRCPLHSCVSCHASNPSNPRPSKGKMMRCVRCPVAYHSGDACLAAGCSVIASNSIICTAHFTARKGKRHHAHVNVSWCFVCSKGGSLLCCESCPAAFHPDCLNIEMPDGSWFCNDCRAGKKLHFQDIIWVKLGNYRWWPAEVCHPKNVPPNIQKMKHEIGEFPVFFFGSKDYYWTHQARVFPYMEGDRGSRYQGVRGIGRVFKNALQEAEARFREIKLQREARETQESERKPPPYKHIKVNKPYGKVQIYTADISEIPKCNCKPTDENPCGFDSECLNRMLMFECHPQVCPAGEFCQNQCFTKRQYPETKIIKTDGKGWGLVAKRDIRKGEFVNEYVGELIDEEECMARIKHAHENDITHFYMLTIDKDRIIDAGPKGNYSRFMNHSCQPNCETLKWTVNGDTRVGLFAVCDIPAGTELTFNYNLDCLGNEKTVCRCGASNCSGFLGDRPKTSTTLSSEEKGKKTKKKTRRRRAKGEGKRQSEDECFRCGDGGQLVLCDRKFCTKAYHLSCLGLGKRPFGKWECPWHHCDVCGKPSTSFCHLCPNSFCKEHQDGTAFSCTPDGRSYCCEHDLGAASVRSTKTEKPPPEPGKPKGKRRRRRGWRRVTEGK
As to conditions: nucleosomes […], […] SAM, pH […] DTT, […] °C.

Test [1] addresses T3, EZH2 Complex (Homo sapiens, UniProt Q15910, Y641F).
T3 construct: five-member complex, Flag-EED, other subunits His-tagged, insect cells; with Zinc finger protein AEBP2; Polycomb protein EED; Polycomb protein SUZ12

Test [2] has as its target T4, EZH2 Complex (Homo sapiens, UniProt Q15910).
T4 construct: five-member complex, Flag-EED, other subunits His-tagged, insect cells; with Zinc finger protein AEBP2; Polycomb protein EED; Polycomb protein SUZ12

The next test has as its target MLL1 Complex (Homo sapiens, UniProt Q03164). The arrangement: gene KMT2A; five-member complex, His-tagged subunits, E. coli; ASH2L isoform of NM_001105214; with WD repeat-containing protein 5; Set1/Ash2 histone methyltransferase complex subunit ASH2; Protein dpy-30 homolog.
The mark [3] stands for this setting: core histone, […] SAM, pH […] EDTA, […] DTT, […] °C, single experiment.

Like-named read-outs stand apart in the source and are kept apart here.

MLL1 Complex, sequence (Q9UBL3 96-628): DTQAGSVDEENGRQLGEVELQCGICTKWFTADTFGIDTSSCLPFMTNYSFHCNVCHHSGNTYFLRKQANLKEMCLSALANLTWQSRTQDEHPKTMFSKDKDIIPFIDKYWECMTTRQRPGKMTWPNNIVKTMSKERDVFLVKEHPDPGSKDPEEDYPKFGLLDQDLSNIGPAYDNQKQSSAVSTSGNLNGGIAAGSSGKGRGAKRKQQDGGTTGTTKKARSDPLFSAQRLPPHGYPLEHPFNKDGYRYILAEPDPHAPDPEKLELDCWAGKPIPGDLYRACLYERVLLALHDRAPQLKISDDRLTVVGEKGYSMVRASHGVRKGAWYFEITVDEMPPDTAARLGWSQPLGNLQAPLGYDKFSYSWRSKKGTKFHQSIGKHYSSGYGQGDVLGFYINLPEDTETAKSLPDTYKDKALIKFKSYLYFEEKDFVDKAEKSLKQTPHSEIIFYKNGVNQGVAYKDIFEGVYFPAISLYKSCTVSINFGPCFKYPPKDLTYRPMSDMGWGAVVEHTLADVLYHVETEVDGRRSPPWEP
MLL1 Complex, sequence (Q03164 3745-3969): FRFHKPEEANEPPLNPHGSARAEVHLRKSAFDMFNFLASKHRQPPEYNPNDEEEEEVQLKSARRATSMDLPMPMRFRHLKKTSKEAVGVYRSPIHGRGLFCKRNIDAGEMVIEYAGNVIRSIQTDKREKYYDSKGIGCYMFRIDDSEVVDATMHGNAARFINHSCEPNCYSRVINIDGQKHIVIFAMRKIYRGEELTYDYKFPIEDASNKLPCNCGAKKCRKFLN
MLL1 Complex, sequence (Q9C005 whole entry, further chain, canonical isoform): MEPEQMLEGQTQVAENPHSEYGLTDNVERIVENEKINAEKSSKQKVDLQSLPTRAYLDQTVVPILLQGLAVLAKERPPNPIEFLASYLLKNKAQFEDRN
MLL1 Complex, sequence (Q15291 whole entry, further chain, canonical isoform): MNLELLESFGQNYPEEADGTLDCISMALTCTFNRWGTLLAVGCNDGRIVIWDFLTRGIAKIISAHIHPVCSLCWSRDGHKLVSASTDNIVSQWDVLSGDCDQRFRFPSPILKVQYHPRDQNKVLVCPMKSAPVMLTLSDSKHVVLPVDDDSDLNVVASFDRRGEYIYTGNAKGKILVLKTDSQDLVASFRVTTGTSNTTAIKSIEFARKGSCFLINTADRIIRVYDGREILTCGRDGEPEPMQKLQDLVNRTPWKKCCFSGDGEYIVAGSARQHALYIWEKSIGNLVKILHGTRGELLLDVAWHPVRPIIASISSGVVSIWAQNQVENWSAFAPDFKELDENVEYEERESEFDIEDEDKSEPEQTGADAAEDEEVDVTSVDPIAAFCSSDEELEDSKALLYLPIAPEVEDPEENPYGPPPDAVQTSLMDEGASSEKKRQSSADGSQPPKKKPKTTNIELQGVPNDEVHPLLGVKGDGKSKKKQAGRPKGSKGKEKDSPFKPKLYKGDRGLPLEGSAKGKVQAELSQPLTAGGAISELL
T3 sequence (Q15910 2-746 Y641F): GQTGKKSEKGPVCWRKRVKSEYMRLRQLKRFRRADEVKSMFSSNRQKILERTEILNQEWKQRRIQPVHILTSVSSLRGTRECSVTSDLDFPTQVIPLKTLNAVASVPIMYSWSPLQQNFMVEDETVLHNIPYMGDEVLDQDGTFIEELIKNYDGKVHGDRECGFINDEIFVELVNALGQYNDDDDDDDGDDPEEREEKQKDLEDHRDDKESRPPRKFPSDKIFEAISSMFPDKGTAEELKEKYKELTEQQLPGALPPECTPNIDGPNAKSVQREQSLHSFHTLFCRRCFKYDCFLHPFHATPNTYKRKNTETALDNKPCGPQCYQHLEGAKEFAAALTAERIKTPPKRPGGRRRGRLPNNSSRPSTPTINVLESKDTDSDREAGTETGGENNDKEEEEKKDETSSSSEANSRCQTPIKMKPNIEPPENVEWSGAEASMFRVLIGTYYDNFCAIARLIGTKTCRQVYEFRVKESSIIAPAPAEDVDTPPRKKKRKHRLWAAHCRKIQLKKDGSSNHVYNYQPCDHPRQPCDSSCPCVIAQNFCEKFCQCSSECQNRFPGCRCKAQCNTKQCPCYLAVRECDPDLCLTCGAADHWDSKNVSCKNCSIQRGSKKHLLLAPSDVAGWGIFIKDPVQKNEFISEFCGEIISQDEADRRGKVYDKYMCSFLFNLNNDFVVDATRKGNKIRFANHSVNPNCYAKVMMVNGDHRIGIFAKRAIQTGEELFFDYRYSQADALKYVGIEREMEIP
T3 sequence (O75530 2-441 partner): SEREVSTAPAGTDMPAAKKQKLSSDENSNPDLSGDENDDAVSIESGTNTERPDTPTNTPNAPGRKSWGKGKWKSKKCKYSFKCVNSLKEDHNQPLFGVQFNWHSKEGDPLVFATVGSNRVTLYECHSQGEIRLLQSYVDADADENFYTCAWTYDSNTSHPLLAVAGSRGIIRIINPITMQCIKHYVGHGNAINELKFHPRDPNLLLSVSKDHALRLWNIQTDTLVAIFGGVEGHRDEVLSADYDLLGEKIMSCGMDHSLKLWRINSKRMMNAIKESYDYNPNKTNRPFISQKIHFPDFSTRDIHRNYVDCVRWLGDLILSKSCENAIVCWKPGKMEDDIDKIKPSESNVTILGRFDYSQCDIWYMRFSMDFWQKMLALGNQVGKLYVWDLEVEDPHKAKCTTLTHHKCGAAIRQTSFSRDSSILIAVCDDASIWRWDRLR
T3 sequence (Q15022 2-739 partner): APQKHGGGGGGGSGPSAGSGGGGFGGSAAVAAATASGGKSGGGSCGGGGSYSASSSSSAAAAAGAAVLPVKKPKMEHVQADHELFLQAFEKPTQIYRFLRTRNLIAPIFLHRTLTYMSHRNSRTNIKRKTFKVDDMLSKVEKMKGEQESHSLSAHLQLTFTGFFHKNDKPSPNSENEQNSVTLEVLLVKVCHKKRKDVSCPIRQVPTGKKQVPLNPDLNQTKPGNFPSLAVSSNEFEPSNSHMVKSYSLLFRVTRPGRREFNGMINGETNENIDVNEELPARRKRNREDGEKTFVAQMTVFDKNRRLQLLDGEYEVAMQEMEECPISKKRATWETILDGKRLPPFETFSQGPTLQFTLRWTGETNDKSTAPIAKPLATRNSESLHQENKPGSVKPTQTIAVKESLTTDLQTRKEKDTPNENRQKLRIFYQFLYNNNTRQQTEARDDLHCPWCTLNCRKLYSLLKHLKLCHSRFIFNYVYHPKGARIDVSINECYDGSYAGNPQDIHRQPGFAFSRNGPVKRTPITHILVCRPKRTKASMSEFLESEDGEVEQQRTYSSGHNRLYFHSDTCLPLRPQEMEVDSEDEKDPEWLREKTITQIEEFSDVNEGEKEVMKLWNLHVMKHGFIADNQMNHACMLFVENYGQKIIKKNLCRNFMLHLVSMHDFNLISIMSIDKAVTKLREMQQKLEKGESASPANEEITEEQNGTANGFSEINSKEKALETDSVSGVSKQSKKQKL
T3 sequence (Q09028 2-425 partner): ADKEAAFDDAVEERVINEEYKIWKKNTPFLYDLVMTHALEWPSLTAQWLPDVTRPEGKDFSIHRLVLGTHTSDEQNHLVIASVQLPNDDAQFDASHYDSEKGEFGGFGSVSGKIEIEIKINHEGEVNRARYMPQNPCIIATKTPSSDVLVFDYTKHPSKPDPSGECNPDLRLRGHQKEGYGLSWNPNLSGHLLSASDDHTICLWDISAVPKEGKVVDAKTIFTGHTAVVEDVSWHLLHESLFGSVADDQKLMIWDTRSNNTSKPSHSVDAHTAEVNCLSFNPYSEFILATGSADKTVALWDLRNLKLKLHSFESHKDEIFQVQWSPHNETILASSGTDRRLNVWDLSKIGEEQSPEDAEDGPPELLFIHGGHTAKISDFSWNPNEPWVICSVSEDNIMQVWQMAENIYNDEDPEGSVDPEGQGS
T3 sequence (Q6ZN18 2-517 partner): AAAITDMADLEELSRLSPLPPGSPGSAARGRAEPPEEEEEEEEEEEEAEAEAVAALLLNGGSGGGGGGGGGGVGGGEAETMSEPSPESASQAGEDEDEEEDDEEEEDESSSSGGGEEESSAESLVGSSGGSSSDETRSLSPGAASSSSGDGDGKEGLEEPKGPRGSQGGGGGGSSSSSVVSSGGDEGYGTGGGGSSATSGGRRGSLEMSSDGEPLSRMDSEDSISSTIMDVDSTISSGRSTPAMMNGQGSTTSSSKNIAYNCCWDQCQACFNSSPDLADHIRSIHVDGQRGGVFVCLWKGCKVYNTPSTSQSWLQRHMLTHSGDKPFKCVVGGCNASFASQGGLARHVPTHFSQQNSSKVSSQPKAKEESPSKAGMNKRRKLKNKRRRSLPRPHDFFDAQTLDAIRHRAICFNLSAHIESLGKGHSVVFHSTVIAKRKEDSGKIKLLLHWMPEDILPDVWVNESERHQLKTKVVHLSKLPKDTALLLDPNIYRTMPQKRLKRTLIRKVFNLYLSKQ
T4 sequence (Q15910 2-746): as the sequence (Q15910 2-746 Y641F) above, with F640Y counted along it
T4 sequence (O75530 2-441 partner): as the sequence (O75530 2-441 partner) above
T4 sequence (Q15022 2-739 partner): as the sequence (Q15022 2-739 partner) above
T4 sequence (Q09028 2-425 partner): as the sequence (Q09028 2-425 partner) above
T4 sequence (Q6ZN18 2-517 partner): as the sequence (Q6ZN18 2-517 partner) above

In the case of `O=C1C(Cl)=C(NCCN2CCOCC2)C(=O)c2ncccc21` [DA3003-1], the IC50 at NSD1 came out at 110 nM; on NSD2 (compound is redox-active), 170 nM; on EZH2 Complex [1], 680 nM; on EZH2 Complex [2] it was 460 nM; on MLL1 Complex, 250 nM.

For `CC1(C)CCC(CN2CCN(c3ccc(C(=O)NS(=O)(=O)c4ccc(NCC5CCOCC5)c([N+](=O)[O-])c4)c(Oc4cnc5[nH]ccc5c4)c3)CC2)=C(c2ccc(Cl)cc2)C1` [ABT-199], the half-inhibitory concentration (IC50) on NSD1 is 2400 nM; at NSD2, 1700 nM; at EZH2 Complex [1], 21000 nM; on EZH2 Complex [2], 23000 nM; at MLL1 Complex, 720 nM.

Consider `COc1cccc(-n2nc(C(=O)O)cc2-c2ccc(C3CCCCC3)c(Cl)c2)c1` [TC LPA5 4], for which the IC50 at NSD1 is 12000 nM; at NSD2, 8500 nM; on EZH2 Complex [1] (setting [3]), 31000 nM; on EZH2 Complex [2] (setting [3]) it was 40000 nM; on MLL1 Complex (nucleosomes, […] SAM, pH […] MgCl2, […] DTT, […] °C, single experiment), 3200 nM.

Source of the values: article doi:10.1101/208439v1 (biorxiv, 2017).
